The NIST ThermoML archive (doi:10.1021/acs.jced.7b00347)

Test: mn = molality of the nth substance listed, in mol/kg
Conditions: for surface tension liquid-gas: Ring tensiometer; for electrical conductivity: 100 kPa, Liquid, Alternating current cell with electrodes

CCCCCCCCCCCC[NH+](CCO)CC(C)O.[Cl-] (stereo unspecified) + O
Conditions	electrical conductivity [S/m]	surface tension liquid-gas [mN/m]
293.15 K, m1 = 1.54e-05	0.00031	–
293.15 K, m1 = 1.543e-05	–	59.21
293.15 K, m1 = 3.087e-05	–	52.72
293.15 K, m1 = 3.859e-05	–	50.31
293.15 K, m1 = 3.95e-05	0.00039	–
293.15 K, m1 = 6.35e-05	0.00047	–
293.15 K, m1 = 7.717e-05	–	44.02
293.15 K, m1 = 8.75e-05	0.000551	–
293.15 K, m1 = 0.0001116	0.000631	–
293.15 K, m1 = 0.0001356	0.000711	–
293.15 K, m1 = 0.0001544	–	37.72
293.15 K, m1 = 0.0001596	0.000791	–
293.15 K, m1 = 0.0001837	0.000872	–
293.15 K, m1 = 0.0002077	0.000952	–
293.15 K, m1 = 0.0002315	–	34.11
293.15 K, m1 = 0.0002317	0.00103	–
293.15 K, m1 = 0.0002558	0.00111	–
293.15 K, m1 = 0.0002798	0.00119	–
293.15 K, m1 = 0.0003038	0.00127	–
293.15 K, m1 = 0.0003087	–	31.52
293.15 K, m1 = 0.0003279	0.00135	–
293.15 K, m1 = 0.0003519	0.00144	30.47
293.15 K, m1 = 0.0003819	0.00148	–
293.15 K, m1 = 0.0004119	0.00153	–
293.15 K, m1 = 0.0004419	0.00159	–
293.15 K, m1 = 0.0004719	0.00163	–
293.15 K, m1 = 0.0005018	0.00169	–
293.15 K, m1 = 0.0005318	0.00174	–
293.15 K, m1 = 0.0005618	0.00179	–
293.15 K, m1 = 0.0005918	0.00184	–
293.15 K, m1 = 0.0006218	0.00189	–
293.15 K, m1 = 0.0006518	0.00194	–
293.15 K, m1 = 0.0006818	0.00199	–
293.15 K, m1 = 0.0007118	0.00204	–
293.15 K, m1 = 0.0007417	0.00209	–
293.15 K, m1 = 0.0007717	0.00214	30.03
293.15 K, m1 = 0.001543	–	29.53
293.15 K, m1 = 0.002315	–	29.53
298.15 K, m1 = 1.54e-05	0.00041	–
298.15 K, m1 = 1.543e-05	–	54.03
298.15 K, m1 = 3.087e-05	–	48.02
298.15 K, m1 = 3.51e-05	0.000488	–
298.15 K, m1 = 3.859e-05	–	45.91
298.15 K, m1 = 5.47e-05	0.000565	–
298.15 K, m1 = 7.43e-05	0.000643	–
298.15 K, m1 = 7.717e-05	–	40
298.15 K, m1 = 9.39e-05	0.000721	–
298.15 K, m1 = 0.0001136	0.000798	–
298.15 K, m1 = 0.0001332	0.000876	–
298.15 K, m1 = 0.0001528	0.000954	–
298.15 K, m1 = 0.0001544	–	34.51
298.15 K, m1 = 0.0001724	0.00103	–
298.15 K, m1 = 0.000192	0.00111	–
298.15 K, m1 = 0.0002117	0.00119	–
298.15 K, m1 = 0.0002313	0.00127	–
298.15 K, m1 = 0.0002315	–	31.42
298.15 K, m1 = 0.0002509	0.00134	–
298.15 K, m1 = 0.0002705	0.00142	–
298.15 K, m1 = 0.0002902	0.0015	–
298.15 K, m1 = 0.0002932	–	29.91
298.15 K, m1 = 0.0003155	0.00156	–
298.15 K, m1 = 0.0003409	0.00161	–
298.15 K, m1 = 0.0003662	0.00167	–
298.15 K, m1 = 0.0003915	0.00173	–
298.15 K, m1 = 0.0004169	0.00179	–
298.15 K, m1 = 0.0004422	0.00185	–
298.15 K, m1 = 0.0004676	0.0019	–
298.15 K, m1 = 0.0004929	0.00196	–
298.15 K, m1 = 0.0005183	0.00202	–
298.15 K, m1 = 0.0005436	0.00208	–
298.15 K, m1 = 0.000569	0.00213	–
298.15 K, m1 = 0.0005943	0.00219	–
298.15 K, m1 = 0.0006197	0.00225	–
298.15 K, m1 = 0.000645	0.00231	–
298.15 K, m1 = 0.0006703	0.00236	–
298.15 K, m1 = 0.0006957	0.00242	–
298.15 K, m1 = 0.000721	0.00248	–
298.15 K, m1 = 0.0007464	0.00254	–
298.15 K, m1 = 0.0007717	0.0026	29.14
298.15 K, m1 = 0.001543	–	28.62
298.15 K, m1 = 0.002315	–	28.22
298.15 K, m1 = 0.003087	–	28.01
303.15 K, m1 = 1.08e-05	–	52.51
303.15 K, m1 = 1.54e-05	0.00051	–
303.15 K, m1 = 1.543e-05	–	49.91
303.15 K, m1 = 3.087e-05	–	44.82
303.15 K, m1 = 3.44e-05	0.000593	–
303.15 K, m1 = 3.859e-05	–	42.83
303.15 K, m1 = 5.34e-05	0.000676	–
303.15 K, m1 = 7.23e-05	0.000759	–
303.15 K, m1 = 7.717e-05	–	38
303.15 K, m1 = 9.13e-05	0.000841	–
303.15 K, m1 = 0.0001102	0.000924	–
303.15 K, m1 = 0.0001292	0.00101	–
303.15 K, m1 = 0.0001482	0.00109	–
303.15 K, m1 = 0.0001544	–	32.62
303.15 K, m1 = 0.0001671	0.00117	–
303.15 K, m1 = 0.0001861	0.00126	–
303.15 K, m1 = 0.0002051	0.00134	–
303.15 K, m1 = 0.000224	0.00142	–
303.15 K, m1 = 0.0002315	–	29.91
303.15 K, m1 = 0.000243	0.0015	–
303.15 K, m1 = 0.0002619	0.00159	–
303.15 K, m1 = 0.0002797	–	28.96
303.15 K, m1 = 0.0002809	0.00167	–
303.15 K, m1 = 0.0003067	0.00174	–
303.15 K, m1 = 0.0003326	0.00181	–
303.15 K, m1 = 0.0003584	0.00188	–
303.15 K, m1 = 0.0003842	0.00195	–
303.15 K, m1 = 0.0004101	0.00202	–
303.15 K, m1 = 0.0004359	0.00209	–
303.15 K, m1 = 0.0004617	0.00216	–
303.15 K, m1 = 0.0004876	0.00223	–
303.15 K, m1 = 0.0005134	0.0023	–
303.15 K, m1 = 0.0005392	0.00237	–
303.15 K, m1 = 0.0005651	0.00244	–
303.15 K, m1 = 0.0005909	0.00251	–
303.15 K, m1 = 0.0006167	0.00258	–
303.15 K, m1 = 0.0006426	0.00265	–
303.15 K, m1 = 0.0006684	0.00272	–
303.15 K, m1 = 0.0006942	0.00279	–
303.15 K, m1 = 0.0007201	0.00285	–
303.15 K, m1 = 0.0007459	0.00293	–
303.15 K, m1 = 0.0007717	0.003	28.21
303.15 K, m1 = 0.001543	–	27.64
303.15 K, m1 = 0.002315	–	27.64
303.15 K, m1 = 0.003087	–	27.64
308.15 K, m1 = 8.952e-06	–	50.44
308.15 K, m1 = 1.54e-05	0.00061	–
308.15 K, m1 = 1.543e-05	–	46.51
308.15 K, m1 = 3.087e-05	–	41.89
308.15 K, m1 = 3.51e-05	0.000702	–
308.15 K, m1 = 3.859e-05	–	40.38
308.15 K, m1 = 5.47e-05	0.000794	–
308.15 K, m1 = 7.43e-05	0.000886	–
308.15 K, m1 = 7.717e-05	–	35.57
308.15 K, m1 = 9.39e-05	0.000978	–
308.15 K, m1 = 0.0001136	0.00107	–
308.15 K, m1 = 0.0001332	0.00116	–
308.15 K, m1 = 0.0001528	0.00125	–
308.15 K, m1 = 0.0001544	–	31.04
308.15 K, m1 = 0.0001724	0.00135	–
308.15 K, m1 = 0.000192	0.00144	–
308.15 K, m1 = 0.0002117	0.00153	–
308.15 K, m1 = 0.0002313	0.00162	–
308.15 K, m1 = 0.0002509	0.00171	–
308.15 K, m1 = 0.0002624	–	27.74
308.15 K, m1 = 0.0002705	0.00181	–
308.15 K, m1 = 0.0002902	0.0019	–
308.15 K, m1 = 0.0003087	–	27.74
308.15 K, m1 = 0.0003169	0.00198	–
308.15 K, m1 = 0.0003437	0.00207	–
308.15 K, m1 = 0.0003704	0.00215	–
308.15 K, m1 = 0.0003972	0.00224	–
308.15 K, m1 = 0.0004239	0.00232	–
308.15 K, m1 = 0.0004507	0.00241	–
308.15 K, m1 = 0.0004774	0.00249	–
308.15 K, m1 = 0.0005042	0.00258	–
308.15 K, m1 = 0.0005309	0.00266	–
308.15 K, m1 = 0.0005577	0.00275	–
308.15 K, m1 = 0.0005845	0.00283	–
308.15 K, m1 = 0.0006112	0.00291	–
308.15 K, m1 = 0.000638	0.003	–
308.15 K, m1 = 0.0006647	0.00308	–
308.15 K, m1 = 0.0006915	0.00317	–
308.15 K, m1 = 0.0007182	0.00325	–
308.15 K, m1 = 0.000745	0.00334	–
308.15 K, m1 = 0.0007717	0.00342	27.55
308.15 K, m1 = 0.001543	–	27.08
308.15 K, m1 = 0.002315	–	26.79
308.15 K, m1 = 0.003087	–	26.79
